Assay results from patent US20230413824A1, “AGROCHEMICAL COMPOSITION COMPRISING 3-SUBSTITUTED PHENYLAMIDINE COMPOUNDS AND USE THEREOF” (PI INDUSTRIES LIMITED, priority 2020, published 2023).
Like-named read-outs stand apart in the source and are kept apart here.

How the values were obtained:
Type in all cases: in vivo
[1] = system: Erysiphe cichoracearum; assay: Erysiphe cichoracearum test in cucumber (preventive, glasshouse); settings: single compound
[2] = system: Alternaria solani; assay: Alternaria solani test in tomato (preventive, glasshouse); settings: for pest or weed control at 1 ppm / pest or weed control at 5 ppm / pest or weed control at 20 ppm / pest or weed control at 0.05 ppm / pest or weed control at 0.1 ppm: Alternaria solani
[3] = system: Pyricularia oryzae; assay: whole plant or invertebrate; settings: for Observed Efficacy: single compound, preventive spray, rice; for pest or weed control at 1 ppm / pest or weed control at 5 ppm / pest or weed control at 20 ppm / pest or weed control at 0.05 ppm / pest or weed control at 0.1 ppm: Pyricularia oryzae, read-out: Observed Efficacy
[4] = system: Septoria nodorum; assay: Parastagonospora nodorum/Septoria nodorum/Stagnospora nodorum test in wheat (preventive, glasshouse); settings: single compound; for pest or weed control at 1 ppm / pest or weed control at 5 ppm / pest or weed control at 20 ppm / pest or weed control at 0.05 ppm / pest or weed control at 0.1 ppm: Parastagonospora nodorum, read-out: Observed Efficacy (%)
Procedure: The single compounds or compound combinations were dissolved in 2% DMSO/Acetone and then mixed with water containing emulsifier to a calibrated spray volume of 50 mL. The spray solutions were poured into spray bottles for further applications.
To test the preventive activity of compounds, healthy young wheat plants, raised in the greenhouse, were sprayed with the single compound or mixture preparation at the stated application rates inside the spray cabinets using hollow cone nozzles. One day after treatment, the plants were inoculated with a suspension containing 2.8×10^6 Stagnospora nodorum inoculum. The inoculated plants were then kept in a greenhouse chamber at 22-25° C. temperature and 90-100% relative humidity for disease expression.
A visual assessment of the performance of the compounds and respective compound combinations was carried out by rating the disease severity (0-100% scale) on treated plants 3, 7 and 10 days after application. Efficacy (% control) of the compounds was calculated by comparing the disease rating in the treatment with the one of the untreated control. The compounds were also assessed for their plant compatibility by recording symptoms like necrosis, chlorosis & stunting. The results are shown for the compound of formula (I-1) to (I-5) in Table E1-E5.

[5] = system: Phakopsora pachyrhizi; assay: Phakopsora pachyrhizi test in soybean (preventive, glasshouse); settings: single compound; for pest or weed control at 0.0001 ppm / pest or weed control at 0.001 ppm / pest or weed control at 0.01 ppm / pest or weed control at 0.05 ppm / pest or weed control at 0.1 ppm: Phakopsora pachyrhizi, read-out: Observed Efficacy (%)
[6] = system: Botrytis cinerea; assay: Botrytis cinerea test in tomato (preventive, glasshouse); settings: single compound; for pest or weed control at 1 ppm: Conc. 1 ppm; for pest or weed control at 5 ppm: Conc. 5 ppm; for pest or weed control at 20 ppm: Conc. 20 ppm
[7] = 0.1 ppm, preventive spray on cucumber
[8] = Table B3, single compound, Conc. 0.05 ppm, preventive
[9] = Table B3, single compound, Conc. 0.1 ppm, preventive
[10] = single compound, 0.05 ppm, preventive
[11] = single compound, 0.05 ppm, preventive spray
[12] = single compound, 0.1 ppm, preventive
[13] = single compound, 0.1 ppm, preventive spray
[14] = 0.05 ppm, preventive spray on soybean
[15] = 0.1 ppm, preventive spray on soybean
[16] = Conc. 0.05 ppm, soybean, preventive, Table D4
[17] = Conc. 0.05 ppm, soybean, preventive, Table D5
[18] = Conc. 0.1 ppm, soybean, preventive, Table D4
[19] = Conc. 0.1 ppm, soybean, preventive, Table D5
[20] = Conc. 0.1 ppm, preventive spray on tomato, % control vs untreated
[21] = 0.05 ppm, preventive spray on cucumber
[22] = Table B4, single compound, Conc. 0.05 ppm, preventive
[23] = Table B4, single compound, Conc. 0.1 ppm, preventive
[24] = Table F4, Conc. 0.05 ppm, Botrytis cinerea in tomato, preventive
[25] = Table F4, Conc. 0.1 ppm, Botrytis cinerea in tomato, preventive
[26] = single compound, preventive, read-out: Observed Efficacy (%)
[27] = Table F5, Botrytis cinerea in tomato, preventive, read-out: Observed Efficacy (%)
[28] = single compound, 0.05 ppm, preventive spray, read-out: Observed Efficacy (%)
[29] = single compound, 0.1 ppm, preventive spray, read-out: Observed Efficacy (%)
[30] = single compound, preventive spray, read-out: Observed Efficacy (%)
[31] = Botrytis cinerea, preventive spray on tomato, % control vs untreated, read-out: Observed Efficacy (%)

## CO/C=C(/C(=O)OC)c1ccccc1Oc1cc(Oc2ccccc2C#N)ncn1 [Azoxystrobin, azoxystrobin]
[1]; 0.1 ppm, cucumber, preventive
  Observed Efficacy (%): 50%
[1]; [7]
  Observed Efficacy (%): 50%
[2]; [8]
  Observed Efficacy (%): 33%
[2]; [9]
  Observed Efficacy (%): 49%
[2]; [10]
  Observed Efficacy (%): 33%
[2]; [11]
  Observed Efficacy (%): 33%
[2]; [12]
  Observed Efficacy (%): 49%
[2]; [13]
  Observed Efficacy (%): 49%
[2]; single compound, Conc. 0.05 ppm, preventive spray
  Observed Efficacy: 33%
[2]; single compound, Conc. 0.1 ppm, preventive spray
  Observed Efficacy: 49%
[3]; Conc. 0.05 ppm
  Observed Efficacy: 21%
[3]; Conc. 0.1 ppm
  Observed Efficacy: 26%
[4]; 0.05 ppm
  Observed Efficacy (%): 42%
[4]; 0.1 ppm
  Observed Efficacy (%): 47%
[5]; [14]
  Observed Efficacy (%): 15%
[5]; [15]
  Observed Efficacy (%): 22%
[5]; [16]
  Observed Efficacy (%): 15%
[5]; [17]
  Observed Efficacy (%): 15%
[5]; [18]
  Observed Efficacy (%): 22%
[5]; [19]
  Observed Efficacy (%): 22%
[6]; [20]
  Observed Efficacy (%): 45%

## Cn1cc(C(=O)Nc2cccc3c2[C@@H]2CC[C@H]3C2=C(Cl)Cl)c(C(F)F)n1 (racemic) [Benzovindiflupyr, benzovindiflupyr]
[1]; 0.05 ppm, cucumber, preventive
  Observed Efficacy (%): 24%
[1]; [21]
  Observed Efficacy (%): 24%
[1]; 0.1 ppm, cucumber, preventive
  Observed Efficacy (%): 29%
[1]; [7]
  Observed Efficacy (%): 29%
[2]; [8]
  Observed Efficacy (%): 14%
[2]; [9]
  Observed Efficacy (%): 29%
[2]; [22]
  Observed Efficacy (%): 14%
[2]; [23]
  Observed Efficacy (%): 29%
[2]; [10]
  Observed Efficacy (%): 14%
[2]; [11]
  Observed Efficacy (%): 14%
[2]; [12]
  Observed Efficacy (%): 29%
[2]; [13]
  Observed Efficacy (%): 29%
[3]; Conc. 0.05 ppm
  Observed Efficacy: 17%
[4]; 0.05 ppm
  Observed Efficacy (%): 29%
[5]; [14]
  Observed Efficacy (%): 27%
[5]; [15]
  Observed Efficacy (%): 38%
[5]; [16]
  Observed Efficacy (%): 27%
[5]; [17]
  Observed Efficacy (%): 27%
[5]; [18]
  Observed Efficacy (%): 38%
[5]; [19]
  Observed Efficacy (%): 38%
[6]; [24]
  Observed Efficacy (%): 33%
[6]; [25]
  Observed Efficacy (%): 42%
[6]; Table F5, Conc. 0.1 ppm, Botrytis cinerea in tomato, preventive
  Observed Efficacy (%): 42%
[6]; Conc. 0.05 ppm, preventive spray on tomato, % control vs untreated
  Observed Efficacy (%): 33%
[6]; [20]
  Observed Efficacy (%): 42%

## CO/C=C(/C(=O)OC)c1ccccc1COc1cccc(C(F)(F)F)n1 [Picoxystrobin, picoxystrobin]
[1]; 0.05 ppm, cucumber, preventive
  Observed Efficacy (%): 19%
[1]; [21]
  Observed Efficacy (%): 19%
[1]; 0.1 ppm, cucumber, preventive
  Observed Efficacy (%): 43%
[1]; [7]
  Observed Efficacy (%): 43%
[2]; [8]
  Observed Efficacy (%): 23%
[2]; [9]
  Observed Efficacy (%): 26%
[2]; [10]
  Observed Efficacy (%): 23%
[2]; [11]
  Observed Efficacy (%): 23%
[2]; [12]
  Observed Efficacy (%): 26%
[2]; [13]
  Observed Efficacy (%): 26%
[3]; Conc. 0.05 ppm
  Observed Efficacy: 16%
[3]; Conc. 0.1 ppm
  Observed Efficacy: 33%
[4]; 0.05 ppm
  Observed Efficacy (%): 12%
[4]; 0.1 ppm
  Observed Efficacy (%): 26%
[5]; [14]
  Observed Efficacy (%): 20%
[5]; [15]
  Observed Efficacy (%): 28%
[5]; [16]
  Observed Efficacy (%): 20%
[5]; [17]
  Observed Efficacy (%): 20%
[5]; [18]
  Observed Efficacy (%): 28%
[5]; [19]
  Observed Efficacy (%): 28%
[6]; [20]
  Observed Efficacy (%): 38%

## CCN(C)C=Nc1cc(F)cc(Cc2cccc(C)c2)c1C [Compound (I-5), N-ethyl-N′-(5-fluoro-2-methyl-3-(3-methylbenzyl)phenyl)-N-methylformimidamide]
[1]; Golovinomyces cichoracearum, 1 ppm, preventive spray on cucumber, read-out: Observed Efficacy (%)
  pest or weed control at 1 ppm: 23%
[1]; Golovinomyces cichoracearum, 5 ppm, preventive spray on cucumber, read-out: Observed Efficacy (%)
  pest or weed control at 5 ppm: 47%
[1]; Golovinomyces cichoracearum, 20 ppm, preventive spray on cucumber, read-out: Observed Efficacy (%)
  pest or weed control at 20 ppm: 77%
[2]; [26]
  pest or weed control at 1 ppm: 13%
  pest or weed control at 5 ppm: 17%
  pest or weed control at 20 ppm: 27%
[3]
  pest or weed control at 1 ppm: 23%
  pest or weed control at 5 ppm: 37%
  pest or weed control at 20 ppm: 47%
[4]
  pest or weed control at 1 ppm: 23%
  pest or weed control at 5 ppm: 33%
  pest or weed control at 20 ppm: 40%
[5]; Conc. 0.0001 ppm, soybean, preventive, Table D5
  pest or weed control at 0.0001 ppm: 37%
[5]; Conc. 0.001 ppm, soybean, preventive, Table D5
  pest or weed control at 0.001 ppm: 50%
[5]; Conc. 0.01 ppm, soybean, preventive, Table D5
  pest or weed control at 0.01 ppm: 61%
[6]; [27]
  pest or weed control at 1 ppm: 53%
  pest or weed control at 5 ppm: 63%
  pest or weed control at 20 ppm: 73%

## CNC(=O)/C(=N/OC)c1ccccc1Oc1ccccc1 [Metominostrobin, metominostrobin]
[1]; Golovinomyces cichoracearum, 0.05 ppm, cucumber, preventive, read-out: Observed Efficacy (%)
  pest or weed control at 0.05 ppm: 14%
[1]; Golovinomyces cichoracearum, 0.1 ppm, cucumber, preventive, read-out: Observed Efficacy (%)
  pest or weed control at 0.1 ppm: 57%
[1]; [21]
  Observed Efficacy (%): 14%
[2]; [28]
  pest or weed control at 0.05 ppm: 26%
[2]; [29]
  pest or weed control at 0.1 ppm: 31%
[2]; single compound, Conc. 0.05 ppm, preventive spray, read-out: Observed Efficacy
  pest or weed control at 0.05 ppm: 26%
[2]; single compound, Conc. 0.1 ppm, preventive spray, read-out: Observed Efficacy
  pest or weed control at 0.1 ppm: 31%
[2]; [9]
  Observed Efficacy (%): 31%
[2]; [22]
  Observed Efficacy (%): 26%
[2]; [23]
  Observed Efficacy (%): 31%
[2]; [10]
  Observed Efficacy (%): 26%
[2]; [12]
  Observed Efficacy (%): 31%
[3]
  pest or weed control at 0.05 ppm: 17%
  pest or weed control at 0.1 ppm: 33%
[4]; 0.05 ppm
  pest or weed control at 0.05 ppm: 6%
[4]; 0.1 ppm
  pest or weed control at 0.1 ppm: 12%
[5]; [16]
  pest or weed control at 0.05 ppm: 45%
[5]; [19]
  pest or weed control at 0.1 ppm: 56%
[5]; [17]
  Observed Efficacy (%): 45%
[6]; Table F5, Conc. 0.1 ppm, Botrytis cinerea in tomato, preventive, read-out: Observed Efficacy (%)
  pest or weed control at 0.1 ppm: 40%

## CON=C(C(=O)OC)c1ccccc1CON=C(C)c1cccc(C(F)(F)F)c1 [Trifloxystrobin, trifloxystrobin]
[2]; [28]
  pest or weed control at 0.05 ppm: 33%
[2]; [29]
  pest or weed control at 0.1 ppm: 40%
[2]; [9]
  Observed Efficacy (%): 40%
[3]
  pest or weed control at 0.05 ppm: 24%
  pest or weed control at 0.1 ppm: 32%
[4]; 0.05 ppm
  pest or weed control at 0.05 ppm: 5%
[4]; 0.1 ppm
  pest or weed control at 0.1 ppm: 18%
[5]; [15]
  pest or weed control at 0.1 ppm: 32%
[5]; [16]
  pest or weed control at 0.05 ppm: 22%
[5]; [18]
  Observed Efficacy (%): 32%
[5]; [19]
  Observed Efficacy (%): 32%
[6]; Botrytis cinerea, Conc. 0.05 ppm, preventive spray on tomato, % control vs untreated, read-out: Observed Efficacy (%)
  pest or weed control at 0.05 ppm: 26%
[6]; Botrytis cinerea, Conc. 0.1 ppm, preventive spray on tomato, % control vs untreated, read-out: Observed Efficacy (%)
  pest or weed control at 0.1 ppm: 33%
[6]; [24]
  Observed Efficacy (%): 26%
[6]; [25]
  Observed Efficacy (%): 33%

## CCN(C)C=Nc1cc(C)cc(Cc2ccc(C)cc2)c1C [Compound (I-2), N′-(2,5-dimethyl-3-(4-methylbenzyl)phenyl)-N-ethyl-N-methylformimidamide]
[2]; [30]
  pest or weed control at 1 ppm: 13%
  pest or weed control at 5 ppm: 23%
  pest or weed control at 20 ppm: 33%
[3]
  pest or weed control at 1 ppm: 13%
  pest or weed control at 5 ppm: 23%
  pest or weed control at 20 ppm: 37%
[4]
  pest or weed control at 1 ppm: 13%
  pest or weed control at 5 ppm: 23%
  pest or weed control at 20 ppm: 33%
[5]; 0.0001 ppm, preventive spray on soybean
  pest or weed control at 0.0001 ppm: 47%
[5]; 0.001 ppm, preventive spray on soybean
  pest or weed control at 0.001 ppm: 57%
[5]; 0.01 ppm, preventive spray on soybean
  pest or weed control at 0.01 ppm: 68%
[6]; [31]
  pest or weed control at 1 ppm: 23%
  pest or weed control at 5 ppm: 33%
  pest or weed control at 20 ppm: 53%
